For orientation: IC50 means the concentration that inhibits the measured activity by half.

From patent publication US11926625B2, “HPK1 antagonists and uses thereof” (Nimbus Saturn, Inc., priority 2021, dated 2024) come the findings set out here.

T1 sequence (Q92918 whole entry): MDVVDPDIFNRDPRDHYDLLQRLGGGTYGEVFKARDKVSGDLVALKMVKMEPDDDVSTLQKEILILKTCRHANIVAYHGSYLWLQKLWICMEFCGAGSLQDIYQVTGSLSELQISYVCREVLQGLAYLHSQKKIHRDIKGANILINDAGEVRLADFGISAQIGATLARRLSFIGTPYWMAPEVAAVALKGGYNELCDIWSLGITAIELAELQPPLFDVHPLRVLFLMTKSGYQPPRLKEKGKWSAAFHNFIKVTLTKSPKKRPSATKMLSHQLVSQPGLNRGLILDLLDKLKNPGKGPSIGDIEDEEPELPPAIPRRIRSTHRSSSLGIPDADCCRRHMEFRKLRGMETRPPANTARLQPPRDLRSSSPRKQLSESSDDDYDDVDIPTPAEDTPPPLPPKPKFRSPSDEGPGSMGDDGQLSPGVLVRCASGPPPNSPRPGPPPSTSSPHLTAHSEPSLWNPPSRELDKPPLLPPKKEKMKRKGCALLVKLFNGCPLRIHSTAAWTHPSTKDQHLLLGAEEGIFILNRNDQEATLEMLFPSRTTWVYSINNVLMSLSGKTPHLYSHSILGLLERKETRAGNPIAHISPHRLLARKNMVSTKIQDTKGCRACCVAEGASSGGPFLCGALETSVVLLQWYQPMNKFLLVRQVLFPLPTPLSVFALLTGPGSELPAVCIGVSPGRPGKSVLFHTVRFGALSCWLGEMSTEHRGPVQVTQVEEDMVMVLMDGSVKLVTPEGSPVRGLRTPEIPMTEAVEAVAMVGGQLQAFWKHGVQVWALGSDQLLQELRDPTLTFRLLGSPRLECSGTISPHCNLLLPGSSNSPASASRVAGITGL

This experiment concerns the target T1, HPK1 (Homo sapiens, UniProt Q92918).
T1 construct: purchased Invitrogen
The experiment in a line: HPK1 biochemical enzyme assay (microfluidic mobility shift, Caliper). As to conditions: 1.5 nM HPK1 (Invitrogen), 1 mM ATP, 30 min preincubation, 60 min at RT, top concentration 3 μM; read-out: HPK1 1000UMATP caliper IC50. The protocol:
Example 20. HPK1 Biochemical Enzyme Assay
HPK1 biochemical enzyme assay: HPK1 enzyme inhibition was measured using a microfluidic mobility shift assay. Reactions were performed in a 384-well plate, containing 1.5 nM HPK1 (Invitrogen), in assay buffer (Cama Biosciences; pH 7.4). Test compounds were titrated in ten point curves (top final assay concentration 3 μM), and preincubated with enzyme/substrate mix for 30 min prior to initiation of the reaction by addition of ATP (1 mM final concentration) and substrate (1 μM final concentration; Carna Biosciences) diluted in assay buffer supplemented by MgCl2 (final assay concentration of 5 mM). Following 60 min incubation at RT, the reaction was terminated by addition of 60 μl/well termination buffer (Carna Biosciences) and signal determination using a Caliper EZ Reader (Perkin Elmer, UK).
Turning to `COc1ccc(-c2ncc(Nc3ccc(N4CCNCC4)cn3)c3c2CNC3=O)cc1` [Compound I-6, 4-(4-methoxyphenyl)-7-[(5-piperazin-1-yl-2-pyridyl)amino]-2,3-dihydropyrrolo [3,4-c]pyridin-1-one], the IC50 was in the range of 1 to 5 µM.

For `O=C1NCc2c(-c3c(F)cccc3F)ncc(Nc3ccc(N4CCNCC4)cn3)c21` [Compound I-3, 4-(2,6-difluorophenyl)-7-[(5-piperazin-1-yl-2-pyridyl)amino]-2,3-dihydropyrrolo [3,4-c]pyridin-1-one], the IC50 was in the range of 1 to 5 µM.

For the compound `CNc1cc(-c2ncc(Nc3ccc(N4CCN(C)CC4)cn3)c3c2CNC3=O)ccn1` [Compound I-56, 4-(2-(methylamino)pyridin-4-yl)-7-((5-(4-methylpiperazin-1-yl)pyridin-2-yl)amino)-2,3-dihydro-1H-pyrrolo[3,4-c]pyridin-1-one], the IC50 was less than 1 µM.

On to `CN1CCN(c2ccc(Nc3ccc(-c4ccnc(OCC5CCC5)c4)c4c3C(=O)NC4)nc2)CC1` [Compound I-47, 4-[2-(cyclobutylmethoxy)-4-pyridyl]-7-[[5-(4-methylpiperazin-1-yl)-2-pyridyl]amino] isoindolin-1-one], for which the IC50 was less than 1 µM.

As to `Cn1cnc(-c2ccc(Nc3ccc(N4CCNCC4)cn3)c3c2CNC3=O)c1-c1ccccc1` [Compound I-77, 4-(1-methyl-5-phenyl-1H-imidazol-4-yl)-7-((5-(piperazin-1-yl)pyridin-2-yl)amino) isoindolin-1-one], the half-inhibitory concentration (IC50) lay in the range of 1 to 5 µM.

Regarding `O=C1NCc2c(-c3ccncc3)ncc(Nc3ccc(N4CCC(O)CC4)cn3)c21` [Compound I-13, 7-[[5-(4-hydroxy-1-piperidyl)-2-pyridyl]amino]-4-(4-pyridyl)-2,3-dihydropyrrolo [3,4-c]pyridin-1-one], the IC50 was 1 to 5 µM.

Turning to `O=C1NCc2c(-c3cccnc3)ncc(Nc3ccc(N4CCNCC4)cn3)c21` [Compound I-7, 7-[(5-piperazin-1-yl-2-pyridyl)amino]-4-(3-pyridyl)-2,3-dihydropyrrolo [3,4-c]pyridin-1-one], the IC50 was 1 to 5 µM.

As to `CN1CCN(c2ccc(Nc3ccc(-c4ccnc(N5CCOCC5)n4)c4c3C(=O)NC4)nc2)CC1` [Compound I-51, 7-[[5-(4-methylpiperazin-1-yl)-2-pyridyl]amino]-4-(2-morpholinopyrimidin-4-yl)isoindolin-1-one], the IC50 was in the range of 1 to 5 µM.

On to `NC(=O)c1ncc(Nc2ccc(N3CCNCC3)cn2)c2c1CNC2=O` [Compound I-8, 1-oxo-7-[(5-piperazin-1-yl-2-pyridyl)amino]-2,3-dihydropyrrolo [3,4-c]pyridine-4-carboxamide], for which the IC50 lay within 1 to 5 µM.

For `Cn1c(-c2ccc(Nc3ccc(N4CCNCC4)cn3)c3c2CNC3=O)cnc1-c1ccccc1` [Compound I-78, 4-(1-methyl-2-phenyl-1H-imidazol-5-yl)-7-((5-(piperazin-1-yl)pyridin-2-yl)amino) isoindolin-1-one], the IC50 is less than 1 µM.

As for `CN1CCN(c2ccc(Nc3cnc(-c4ccncc4)c4c3C(=O)NC4)nc2)CC1` [Compound I-15, 7-[[5-(4-methylpiperazin-1-yl)-2-pyridyl]amino]-4-(4-pyridyl)-2,3-dihydropyrrolo [3,4-c]pyridin-1-one], the IC50 was in the range of 1 to 5 µM.

On to `CN1CCN(c2ccc(Nc3ccc(-c4ccnc(N5CCCCC5)c4)c4c3C(=O)NC4)nc2)CC1` [Compound I-34, 7-[[5-(4-methylpiperazin-1-yl)-2-pyridyl]amino]-4-[2-(1-piperidyl)-4-pyridyl] isoindolin-1-one], for which the IC50 was less than 1 µM.

For the compound `O=C1NCc2c(-c3ccncc3)ccc(Nc3ccc(N4CCOCC4)cn3)c21` [Compound I-26, 7-[(5-morpholino-2-pyridyl)amino]-4-(4-pyridyl) isoindolin-1-one], the IC50 is less than 1 µM.

On to `CNc1cc(-c2ccc(Nc3ccc(N4CCN(C)CC4)cn3)c3c2CNC3=O)ccn1` [Compound I-52, 4-[2-(methylamino)-4-pyridyl]-7-[[5-(4-methylpiperazin-1-yl)-2-pyridyl]amino] isoindolin-1-one], for which the IC50 is less than 1 µM.

Take `CN1CCN(c2ccc(Nc3ccc(-c4ccnc(OCC(=O)N5CCCCC5)c4)c4c3C(=O)NC4)nc2)CC1` [Compound I-39, 7-[[5-(4-methylpiperazin-1-yl)-2-pyridyl]amino]-4-[2-[2-oxo-2-(1-piperidyl)ethoxy]-4-pyridyl] isoindolin-1-one]: the IC50 is less than 1 µM.

Regarding `CN1CCN(c2ccc(Nc3ccc(-c4ccnc(C5(C#N)CCOCC5)c4)c4c3C(=O)NC4)nc2)CC1` [Compound I-46, 4-[4-[7-[[5-(4-methylpiperazin-1-yl)-2-pyridyl]amino]-1-oxo-isoindolin-4-yl]-2-pyridyl] tetrahydropyran-4-carbonitrile], the IC50 is less than 1 µM.

`CN1CCN(c2ccc(Nc3ccc(-c4ccc(F)c(C5CCOCC5)c4)c4c3C(=O)NC4)nc2)CC1` [Compound I-87, 4-(4-fluoro-3-(tetrahydro-2H-pyran-4-yl)phenyl)-7-((5-(4-methylpiperazin-1-yl)pyridin-2-yl)amino) isoindolin-1-one]: the IC50 was 1 to 5 µM.

On to `CN1CCN(c2ccc(Nc3ccc(-c4ccnnc4)c4c3C(=O)NC4)nc2)CC1` [Compound I-59, 7-((5-(4-methylpiperazin-1-yl)pyridin-2-yl)amino)-4-(pyridazin-4-yl)isoindolin-1-one], for which the IC50 was less than 1 µM.

As to `CN1CCN(c2ccc(Nc3cnc(-c4cc[nH]c4)c4c3C(=O)NC4)nc2)CC1` [Compound I-23, 7-[[5-(4-methylpiperazin-1-yl)-2-pyridyl]amino]-4-(1H-pyrrol-3-yl)-2,3-dihydropyrrolo [3,4-c]pyridin-1-one], the IC50 is less than 1 µM.

Take `CN1CCN(c2ccc(Nc3ccc(-c4ccnc(C5CCOC5)c4)c4c3C(=O)NC4)nc2)CC1` (stereo not shown) [Compound I-76]: the IC50 was 1 to 5 µM.

For the compound `O=C1NCc2c(-c3ccncc3)ccc(Nc3ccc(N4CCNCC4)cn3)c21` [Compound I-27, 7-[(5-piperazin-1-yl-2-pyridyl)amino]-4-(4-pyridyl) isoindolin-1-one], the IC50 was less than 1 µM.

`CN1CCN(c2ccc(Nc3ccc(-c4ccnc(C(C)(C)C#N)c4)c4c3C(=O)NC4)nc2)CC1` [Compound I-35, 2-methyl-2-[4-[7-[[5-(4-methylpiperazin-1-yl)-2-pyridyl]amino]-1-oxo-isoindolin-4-yl]-2-pyridyl] propanenitrile]: the IC50 was less than 1 µM.

Consider `Cc1cc(-c2ncc(Nc3ccc(N4CCNCC4)cn3)c3c2CNC3=O)ccn1` [Compound I-9, 4-(2-methyl-4-pyridyl)-7-[(5-piperazin-1-yl-2-pyridyl)amino]-2,3-dihydropyrrolo [3,4-c]pyridin-1-one], for which the IC50 was in the range of 1 to 5 µM.

In the case of `CN1CCN(c2ccc(Nc3ccc(-c4ccnc(N5CCC6(CCCO6)CC5)c4)c4c3C(=O)NC4)nc2)CC1` [Compound I-38, 7-[[5-(4-methylpiperazin-1-yl)-2-pyridyl]amino]-4-[2-(1-oxa-8-azaspiro[4. 5]decan-8-yl)-4-pyridyl] isoindolin-1-one], the IC50 is 1 to 5 µM.

In the case of `O=C1NCc2c(-c3ccncc3)ccc(Nc3ccc(N4CCC(O)CC4)cn3)c21` [Compound I-28, 7-[[5-(4-hydroxy-1-piperidyl)-2-pyridyl]amino]-4-(4-pyridyl) isoindolin-1-one], the IC50 was less than 1 µM.
